Literature values, collected in patent US11761043B2, “Machine assay and analysis for selecting antihypertensive drugs” (Geneticure Inc., priority 2014, dated 2023).

Columns and labels:
CYP2D6 [1] = molecular target: CYP2D6 (Homo sapiens, UniProt P10635); conditions: in vivo
CYP2D6 [2] = conditions: individuals homozygous for adenine (AA) at rs3892097 vs subjects not homozygous AA
renin = conditions: cytosine (guanine) variant of renin rs12750834

Chain of CYP2D6 (Homo sapiens, UniProt P10635) (P10635 whole entry): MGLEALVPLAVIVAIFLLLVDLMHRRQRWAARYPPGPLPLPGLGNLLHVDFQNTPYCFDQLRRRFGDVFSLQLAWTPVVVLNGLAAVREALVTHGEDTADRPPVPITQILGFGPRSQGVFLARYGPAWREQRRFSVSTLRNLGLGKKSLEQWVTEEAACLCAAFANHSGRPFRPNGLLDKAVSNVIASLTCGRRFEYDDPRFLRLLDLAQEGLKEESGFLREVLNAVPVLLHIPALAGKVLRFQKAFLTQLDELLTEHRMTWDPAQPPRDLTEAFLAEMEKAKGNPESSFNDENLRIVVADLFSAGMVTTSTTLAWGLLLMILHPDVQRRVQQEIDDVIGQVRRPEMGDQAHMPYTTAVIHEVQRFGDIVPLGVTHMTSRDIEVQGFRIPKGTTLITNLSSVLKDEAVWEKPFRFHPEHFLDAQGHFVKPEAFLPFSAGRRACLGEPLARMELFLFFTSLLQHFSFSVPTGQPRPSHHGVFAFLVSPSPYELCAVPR

plasma levels after taking these drugs (CYP2D6 [2]) | Compound | further results
 | COc1ccccc1OCCNCC(O)COc1cccc2[nH]c3ccccc3c12 (stereo not shown) [carvedilol] | requirement of CYP2D6 for metabolism (CYP2D6 [1]): do not require CYP2D6 for their metabolism
higher plasma levels | COCCc1ccc(OCC(O)CNC(C)C)cc1 (stereo not shown) [metoprolol] | 
 | CCCCC(=O)N(Cc1ccc(-c2ccccc2-c2nnn[nH]2)cc1)[C@H](C(=O)O)C(C)C [valsartan] | reduction in blood pressure upon administration (renin): greater reduction in blood pressure
higher plasma levels | CC(C)NCC(O)COc1cccc2ccccc12 (stereo not shown) [propranolol] | 
